Source: patent publication US20080176810A1, “Use of 3, 4', 5-Trihydroxy-Stilbene-3-Beta-D-glucoside in Prepartion of Medicines For Treating and/or Preventing Ischemic Heart Disease” (SHENZHEN NEPTUNUS PHARMACEUTICAL CO., LTD., priority 2004, published 2008)
“And” between values parts separate entries of the source, which are not always exact repeats. Identical values can stand only once. “Also recorded” adds a separate entry of the source.

Assays:
[1] = tested on: acute myocardial infarction; test: Acute myocardial infarction in anesthetized dogs, oral (intragastric) administration; type: in vivo; details: for weight of infarct myocardium: N-BT staining; for Weight of IM/Weight of LH: in % (unit assumed); for LDH: serum, 180 min; for ΔST: surface ECG, by row: r6 before, r7-r12 5,15,30,60,90,120 min after administration
Experimental: Drugs were administered intragastrically in equal volume at unequal concentration. […] After weighing, animals were anesthetized with 3% pentobarbital sodium iv at the dose of 30 mg/kg. Tracheal intubation was performed and anesthesia respirator (SC-M5, manufactured by Shanghai Medical Instrument Factory) was connected for mechanical ventilation (18 20 per min with tidal volume of 350 550 ml) after thoracotomy. Needle electrodes were punctured into four limbs and under chest skin for monitoring standard limb lead and V3 and ECG. Thoracotomy was performed at the third intercostal space of left sternal border and the fourth rib was removed for full exposure of heart. The pericardium was cut open to make a pericardium hammock. The coronary artery was dissociated from between the second and third branches of left anterior descending coronary artery, underneath which pass through silk threads for two-step ligation. On surface of heart were placed 30-point epicardial leads, to which four limbs were connected through needle-electrodes, which were in turn connected to Powerlab/8s (AD Instruments) with a multichannel switcher to record epicardial electrogram. Animal models of acute myocardial ischemia were prepared with the method of two-step ligation. […] NBT). While other part of myocardium was dyed to blue-black, the Infarct myocardium would not be colorated, which was then cut off and weighted. The results of experiment were shown in x±s and statistics were checked with t-test of non-matched pair. When p<0.05, it was judged that the differences were statistically significant.

[2] = Pharmacokinetics of single-dose iv in Beagle dogs; details: for maximum plasma drug concentration: dogs;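 on all read-outs here: plasma levels in healthy adult Beagle dogs, five per dose group, after slow forelimb iv injection over 5 min, parameters from non-compartmental statistical moment analysis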
Experimental: Pharmacokinetical studies were carried out in three groups at the doses of 10 mg/Kg, 20 mg/Kg and 30 mg/Kg. Five healthy adult Beagle dogs were chosen into each dose group. […] The intravenous injection was performed in one forelimb of each tested dog within 5 min in a very slow manner. Three hours after the intravenous injection, the dogs could be fed. 3 ml of venous blood was sampled in heparinized tubes from another forelimb of each tested dog before and 0, 5, 10, 20, 40, 60, 90, 120, 180, 240, 300, 360 and 480 min after administration. Blood samples were centrifuged to obtain 1 ml of plasma.
Non compartmental modeling method (statistical moment) was applied in the data analysis. Estimating formula of corresponding parameters is as follows:
AUC0˜τ=Σ(Ci+Ci−1)×(ti−ti−1)/2
AUC0˜∞=Σ(Ci+Ci−1)×(ti−ti−1)/2+Cn/λ
AUMC0˜∞=Σ(Citi+Ci−1ti−1)×(ti−ti−1)/2+Cn(1/λ^2+tn/λ)
Where, in the formula, λ indicates the number of terminal eliminating rate of the concentration-time curve. tn and Cn represent the latest time of blood-sampling and plasma drug concentration, respectively. Pharmacokinetical parameters such as tmax and Cmax take the corresponding measuring value of plasma samples.
These pharmacokinetic parameters are obtained with non compartmental modeling method.

[3] = Beagle dogs, single dose iv, 10 mg/Kg, non compartmental
[4] = Beagle dogs, single dose iv, 20 mg/Kg, non compartmental
[5] = Beagle dogs, single dose iv, 30 mg/Kg, non compartmental

Substance: 3,4′,5-trihydroxy-stilbene-3-β-D-glucoside [TSG]
- weight of infarct myocardium ([1]; TSG 5 mg/kg oral): 5.98 ± 1.71 g
- Weight of IM/Weight of LH ([1]; TSG 5 mg/kg oral): 10.8 ± 2.81
- LDH ([1]; TSG 5 mg/kg oral): 159 ± 80.4 IU/L
- ΔST ([1]; TSG 5 mg/kg oral, 5 min after administration): 0.70 ± 0.50 mV
- ΔST ([1]; TSG 5 mg/kg oral, 15 min after administration): 0.71 ± 0.48 mV
- ΔST ([1]; TSG 5 mg/kg oral, 30 min after administration): 0.73 ± 0.51 mV
- ΔST ([1]; TSG 5 mg/kg oral, 60 min): 0.88 ± 0.54 mV
- ΔST ([1]; TSG 5 mg/kg oral, 90 min after administration): 0.82 ± 0.49 mV
- ΔST ([1]; TSG 5 mg/kg oral, 120 min after administration): 0.86 ± 0.52 mV
- ΔST ([1]; TSG 5 mg/kg oral, Before administration): 0.66 ± 0.45 mV
- weight of infarct myocardium ([1]; TSG 10 mg/kg oral): 3.17 ± 0.66 g
- Weight of IM/Weight of LH ([1]; TSG 10 mg/kg oral): 6.61 ± 1.31
- LDH ([1]; TSG 10 mg/kg oral): 140 IU/L
- ΔST ([1]; TSG 10 mg/kg oral, 5 min after administration): 0.68 ± 0.51 mV
- ΔST ([1]; TSG 10 mg/kg oral, 15 min after administration): 0.69 ± 0.52 mV
- ΔST ([1]; TSG 10 mg/kg oral, 30 min after administration): 0.69 ± 0.45 mV
- ΔST ([1]; TSG 10 mg/kg oral, 60 min): 0.70 ± 0.44 mV
- ΔST ([1]; TSG 10 mg/kg oral, 90 min after administration): 0.75 ± 0.46 mV
- ΔST ([1]; TSG 10 mg/kg oral, 120 min after administration): 0.81 ± 0.52 mV
- ΔST ([1]; TSG 10 mg/kg oral, Before administration): 0.55 ± 0.40 mV
- weight of infarct myocardium ([1]; TSG 20 mg/kg oral): 2.31 ± 0.70 g
- Weight of IM/Weight of LH ([1]; TSG 20 mg/kg oral): 4.03 ± 0.61
- LDH ([1]; TSG 20 mg/kg oral): 120 IU/L
- AUC0~∞ ([2]; 10 mg/kg iv): 315.42 ± 60.82 µg·min/mL and 315 µg·min/mL
- terminal elimination half life (t1/2) ([2]; 10 mg/kg iv): 2.7978 ± 2.8483 h and 2.8 h
- AUC0~∞ ([2]; 20 mg/kg iv): 745.75 ± 175.84 µg·min/mL and 745 µg·min/mL
- terminal elimination half life (t1/2) ([2]; 20 mg/kg iv): 2.5175 ± 0.9553 h and 2.53 h
- AUC0~∞ ([2]; 30 mg/kg iv): 1552.71 ± 227.28 µg·min/mL and 1552 µg·min/mL
- terminal elimination half life (t1/2) ([2]; 30 mg/kg iv): 6.2182 ± 6.2163 h and 6.22 h
- maximum plasma drug concentration ([2]; 30 mg/kg iv): 100 µg/mL
- maximum plasma drug concentration ([2]; 30 mg/kg iv, listed as 3,4′,5-trihydroxy-stilbene-3-β-D-glucoside): about 100 μg/ml; also recorded: approximately 0.25 mM
- AUC0~480 [2, 3]: 283.05 ± 49.85 µg·min/mL
- AUC0~∞ [2, 3]: 315.42 ± 60.82 µg·min/mL
- CI [2, 3]: 0.03 ± 0.01 L/min
- MRT [2, 3]: 2.3343 ± 2.0812 h
- Vss [2, 3]: 4.21 ± 3.06 L
- t1/2 [2, 3]: 2.7978 ± 2.8483 h
- AUC0~480 [2, 4]: 718.32 ± 179.10 µg·min/mL
- AUC0~∞ [2, 4]: 745.75 ± 175.84 µg·min/mL
- CI [2, 4]: 0.03 ± 0.01 L/min
- MRT [2, 4]: 1.301 ± 0.204 h
- Vss [2, 4]: 2.24 ± 0.78 L
- t1/2 [2, 4]: 2.5175 ± 0.9553 h
- AUC0~480 [2, 5]: 1432.17 ± 349.97 µg·min/mL
- AUC0~∞ [2, 5]: 1552.71 ± 227.28 µg·min/mL
- CI [2, 5]: 0.02 ± 0.00 L/min
- MRT [2, 5]: 3.068 ± 4.0013 h
- Vss [2, 5]: 4.25 ± 6.35 L
- t1/2 [2, 5]: 6.2182 ± 6.2163 h
